Data published in EP0210284B1, “1,3-Dithiol-2-ylidene derivatives” (priority 1985, dated 1987).
Where two headings read alike, the source gives them in different places.

Key:
mice (ddY mice) = test: Acute toxicity test; assay type: in vivo; conditions: oral in olive oil, mortality one week after the administration, n=5
Description: A test compound was dissolved or suspended in olive oil and administered orally to mice (ddY mice, ? , 23±2g, n=5). The acute toxicity value (LD₅₀) was determined from the mortality one week after the administration.

[1] = tested on: Acute Liver Injury Induced by Carbon Tetrachloride; test: Protective effect on acute liver injury induced by carbon tetrachloride; assay type: in vivo, mice (ddY mice); conditions: for Liver Damage Index: 50mg/kg orally in olive oil 6 hours before carbon tetrachloride (0.05ml/kg orally), visual score 0: normal, 2: slightly, 4: distinctly, 6: remarkably injured, n=5, CCl4 alone 6.0; for inhibition in vivo at 50 mg/kg: Mus musculus, po, 50mg/kg orally 6 hours before carbon tetrachloride (0.05ml/kg orally), CCl4 alone 0, Normal 100
Description: A test compound was dissolved or suspended in olive oil and administered orally at a dose of 50mg/kg to mice (ddY mice, ? , 23 ± 2g, n=5). After 6 hours, carbon tetrachloride (0.05ml/kg) was administered orally. 24 Hours after the administration of carbon tetrachloride, BSP (sodium sulfobromophthalene; 75mg/kg) was administered intravenously. Thirty minutes later, the cardiac blood was collected, and GPT (glutamic-pyruvic transaminase) activity and the retention rate of BSP in the plasma were measured. Further, the liver injury immediately after the collection of the blood was visually observed and evaluated by the following score for liver damage index. 0: normal 2: Slightly injured 4: distinctly injured 6: remarkably injured

[2] = 24.5 h, retention rate of BSP in plasma 30 minutes after BSP 75mg/kg i.v., read-out: % Prophylaxis BSP
[3] = plasma GPT about 24.5 hours after CCl4, read-out: % Prophylaxis p-GPT

| Compound | acute toxicity value (LD50) (mice (ddY mice)) | Liver Damage Index [1] | inhibition in vivo at 50 mg/kg [1, 2] [%] | inhibition in vivo at 50 mg/kg [1, 3] [%] |
| --- | --- | --- | --- | --- |
| CC(=O)C(C(=O)c1cccc2ccccc12)=C1SC=CS1 [Compound 27, 2-(1,3-dithiol-2-ylidene)-1-(1-naphthyl)-1,3-butanedione] | at least 2 g | 0 | 100 | 100 |
| COc1ccccc1C(=O)C(C(C)=O)=C1SC=CS1 [Compound 16, 2-(1,3-dithiol-2-ylidene)-1-(2-methoxyphenyl)-1,3-butanedione] | – | 0.6 | 95 | 99 |
| CC(=O)C(C(=O)c1cccnc1)=C1SC=CS1 [Compound 21, 2-(1,3-dithiol-2-ylidene)-1-(3-pyridyl)-1,3-butanedione] | – | 0.8 | 100 | 98 |
| CC(=O)C(C(=O)c1ccc(Br)cc1)=C1SC=CS1 [Compound 15, 2-(1,3-dithiol-2-ylidene)-1-(4-bromophenyl)-1,3-butanedione] | – | 3.2 | 105 | 100 |
| CC(=O)C(C(=O)c1ccc(C)cc1)=C1SC=CS1 [Compound 12, 2-(1,3-dithiol-2-ylidene)-1-(4-methylphenyl)-1,3-butanedione] | at least 2 g | 0.6 | 114 | 100 |
| CC(=O)C(C(=O)c1ccc([N+](=O)[O-])cc1)=C1SC=CS1 [Compound 19, 2-(1,3-dithiol-2-ylidene)-1-(4-nitrophenyl)-1,3-butanedione] | – | 1.6 | 100 | 100 |
| CC=CC(=O)C(C(=O)c1ccccc1)=C1SC=CS1 [Compound 11, 2-(1,3-dithiol-2-ylidene)-1-phenyl-4-hexene-1,3-dione] | – | 0.8 | 105 | 100 |
| O=C(C(C(=O)C(F)(F)F)=C1SC=CS1)c1ccccc1 [Compound 31, 2-(1,3-dithiol-2-ylidene)-1-phenyl-4,4,4-trifluoro-1,3-butanedione] | – | 0.4 | 106 | 100 |
| CC(=O)C(C(=O)C=Cc1ccccc1)=C1SC=CS1 [Compound 33, 4-(1,3-dithiol-2-ylidene)-1-phenyl-1-hexene-3,5-dione] | – | 4.2 | 86 | 77 |
| O=C(C(C(=O)c1ccc(Cl)cc1)=C1SC=CS1)c1ccc(Cl)cc1 [Compound 35, 2-(1,3-dithiol-2-ylidene)-1,3-di(4-chlorophenyl)-1,3-propanedione] | – | 0 | 114 | 100 |
| O=C(C(C(=O)c1ccccc1)=C1SC=CS1)c1ccccc1 [Compound 34, 2-(1,3-dithiol-2-ylidene)-1,3-diphenyl-1,3-propanedione] | – | 0.8 | 112 | 100 |
| CC(=O)C(C(=O)c1ccc(N)cc1)=C1SC=CS1 [Compound 46, 2-(1,3-dithiol-2-ylidene)-1-(4-aminophenyl)-1,3-butanedione] | – | 0.4 | 106 | 100 |
| CC(=O)C(C(=O)Cc1ccccc1)=C1SC=CS1 [Compound 32, 3-(1,3-dithiol-2-ylidene)-1-phenyl-2,4-pentanedione] | – | 0.4 | 124 | 95 |
| CC(=O)C(C(=O)c1ccncc1)=C1SC=CS1 [Compound 22, 2-(1,3-dithiol-2-ylidene)-1-(4-pyridyl)-1,3-butanedione] | – | 0.2 | 120 | 100 |
| O=C(Cc1ccccc1)C(C(=O)c1ccccc1)=C1SC=CS1 [Compound 37, 2-(1,3-dithiol-2-ylidene)-1,4-diphenyl-1,3-butanedione] | – | 1.8 | 99 | 100 |
| CC(=O)C(C(=O)c1ccc2ccccc2n1)=C1SC=CS1 [Compound 30, 2-(1,3-dithiol-2-ylidene)-1-(2-quinolyl)-1,3-butanedione] | – | 2.0 | 105 | 98 |

| Compound | acute toxicity value (LD50) (mice (ddY mice)) | Liver Damage Index [1] | inhibition in vivo at 50 mg/kg [1, 2] [%] | inhibition in vivo at 50 mg/kg [1, 3] [%] |
| --- | --- | --- | --- | --- |
| CC(=O)C(C(=O)c1cc2ccccc2[nH]1)=C1SC=CS1 [Compound 29, 2-(1,3-dithiol-2-ylidene)-1-(2-indolyl)-1,3-butanedione] | – | 0.8 | 104 | 100 |
| CCCC(=O)C(C(=O)c1ccccc1)=C1SC=CS1 [Compound 7, 2-(1,3-dithiol-2-ylidene)-1-phenyl-1,3-hexanedione] | at least 2 g | 1.6 | 108 | 100 |
| CC(=O)C(C(=O)c1ccc2ccccc2c1)=C1SC=CS1 [Compound 28, 2-(1,3-dithiol-2-ylidene)-1-(2-naphthyl)-1,3-butanedione] | at least 2 g | 0 | 100 | 99 |
| CC(=O)C(C(=O)c1ccc(Cl)cc1)=C1SC=CS1 [Compound 14, 2-(1,3-dithiol-2-ylidene)-1-(4-chlorophenyl)-1,3-butanedione] | – | 0.4 | 113 | 100 |
| COc1ccc(C(=O)C(C(=O)c2ccc(OC)cc2)=C2SC=CS2)cc1 [Compound 36, 2-(1,3-dithiol-2-ylidene)-1,3-di(4-methoxyphenyl)-1,3-propanedione] | – | 0 | 119 | 100 |
| O=C(C=Cc1ccccc1)C(C(=O)c1ccccc1)=C1SC=CS1 [Compound 38, 4-(1,3-dithiol-2-ylidene)-1,5-diphenyl-1-pentene-3,5-dione] | – | 3.2 | 96 | 66 |
| COc1ccc(C(=O)C(C(C)=O)=C2SC=CS2)cc1OC [Compound 18, 2-(1,3-dithiol-2-ylidene)-1-(3,4-dimethoxyphenyl)-1,3-butanedione] | – | 0.4 | 100 | 54 |
| CC(=O)C(C(=O)c1ccco1)=C1SC=CS1 [Compound 23, 2-(1,3-dithiol-2-ylidene)-1-(2-furyl)-1,3-butanedione] | – | 1.0 | 110 | 94 |
| CC(=O)C(C(=O)c1ccc(O)cc1)=C1SC=CS1 [Compound 45, 2-(1,3-dithiol-2-ylidene)-1-(4-hydroxyphenyl)-1,3-butanedione] | at least 2 g | 0.2 | 111 | 100 |
| CC(C)CC(=O)C(C(=O)c1ccccc1)=C1SC=CS1 [Compound 8, 2-(1,3-dithiol-2-ylidene)-5-methyl-1-phenyl-1,3-hexanedione] | at least 2 g | 1.2 | 110 | 100 |
| COc1ccc(C(=O)C(C(C)=O)=C2SC=CS2)cc1 [Compound 17, 2-(1,3-dithiol-2-ylidene)-1-(4-methoxyphenyl)-1,3-butanedione] | at least 2 g | 0 | 100 | 100 |
| CC(=O)C(C(=O)c1cnccn1)=C1SC=CS1 [Compound 26, 2-(1,3-dithiol-2-ylidene)-1-pyrazinyl-1,3-butanedione] | – | 0.4 | 99 | 96 |
| CC(=O)C(C(=O)c1cccs1)=C1SC=CS1 [Compound 24, 2-(1,3-dithiol-2-ylidene)-1-(2-thienyl)-1,3-butanedione] | – | 0 | 102 | 100 |
| CC(=O)C(C(=O)c1ccc[nH]1)=C1SC=CS1 [Compound 25, 2-(1,3-dithiol-2-ylidene)-1-(2-pyrrolyl)-1,3-butanedione] | – | 2.2 | 88 | 76 |
| CC(C)(C)C(=O)C(C(=O)c1ccccc1)=C1SC=CS1 [Compound 9, 2-(1,3-dithiol-2-ylidene)-4,4-dimethyl-1-phenyl-1,3-pentanedione] | – | 0.4 | 103 | 100 |
